What was measured:
[1] = test system: H1N1 (influenza A/New Caledonia/20/99); assay: Antiviral effect on A549 cells infected with H1N1; assay type: cell-based, H1N1 A/New Caledonia/20/99 virus; details: Human A549 cells, MOI of 0.1, 48 h post-infection, MUNANA hydrolysis readout
Method in brief: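 Human A549 cells were treated with a concentration range of compound and immediately infected with H1N1 A/New Caledonia/20/99 at MOI 0.1 in DMEM with 0.25 μg/ml TPCK trypsin, 37° C. At 48 h, supernatant neuraminidase activity was measured on MUNANA (stock 20 μM) for 1 h at 37° C. 4-MU fluorescence was read at ex 365/em 450 nm.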

NFκB = NFκB reporter assay, TNFα stimulation; assay type: cell-based; details: Homo sapiens; A549 NFκB-NanoLuciferase reporter cells, 4 ng/ml TNFα, 6 hours
Excerpt: Compounds of the present invention have been tested for their capacity to inhibit NFκB.
The NFκB reporter construct was made by cloning 5 NFκB responsive elements upstream of a NanoLuciferase reporter gene flanked by AAVS1 genomic sequences.
NFκB Responsive element fused with NanoLuciferase and SV40 late Poly(A) signal was amplified from pNL3.2-NFκB-Nluc (Promega) using NFκB-NLUC-F and NFκB-NLUC-R primers and inserted by Infusion (TaKaRa) in AAVS1 SA-2A-puro-pA donor plasmid (Hockemeyer et al, Nat Biotechnol. 2009, 27, 851-7) digested by Sal1. pCRISPR AAVS1-T2 expressing a guide RNA (gRNA) to target human AAVS1 (T2 target sequence) was constructed by inserting AAVS1-T2A hybridized primers in pLentiCRISPR v2-blast (Sanjana et al, Nat Methods. 2014, 11, 783-4) digested by Bsmb1.
A549 cells were transfected by the plasmids and puromycine selected for 5 days (1 μg mL-1). Then clones were obtained by limiting dilution and selected to maximize TNF dependent NFkB-NanoLuciferase induction.
The reporter cells were seeded on a 96-well plate for overnight with DMEM including 10% FBS. Test compounds were added at varying concentrations. The cells then were treated with 4 ng/ml TNFα (Peprotech, ref E251) in DMEM+10% FBS. NanoGlo luciferase assay (Promega) was carried out 6 hours later. Luminescence was measured using a Spark 20M spectrofluorimeter (Tecan). Values were normalized to the luminescence measured in untreated cells.

[2] = molecular target: T1, CISD1 Gene Product (mitoNEET) (Homo sapiens, UniProt Q9NZ45); assay: Stability of Fe—S cluster binding of purified NEET protein mitoNEET; assay type: biochemical; details: for Time (in minutes) to achieve 50% loss of bound cluster (Absorbance 458 nm), CISD1 Gene Product (mitoNEET) / Residual cluster bound at end of experiment (Percentage Absorbance 458 nm at time zero), CISD1 Gene Product (mitoNEET): pH 6, 37° C., 1:3 protein:compound molar ratio; for Time (in minutes) to achieve 50% loss of bound cluster (Absorbance 458 nm), CISD1 Gene Product (mitoNEET): 6 μM compound, run time 180 minutes, Vehicle Control 80; for Residual cluster bound at end of experiment (Percentage Absorbance 458 nm at time zero), CISD1 Gene Product (mitoNEET): end of 180 minutes, Vehicle Control 16%
T1 sequence (Q9NZ45 33-108 limits assumed): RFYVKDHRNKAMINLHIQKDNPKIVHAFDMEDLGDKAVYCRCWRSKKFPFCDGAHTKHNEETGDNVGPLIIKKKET
Description: (§1) The modulator effect on the NEET proteins encoded by human CISD1, CISD2, and CISD3 genes by the compounds of the invention has been tested and is reported below. Particularly, the biochemical function of the NEET proteins is measured by the stability of Fe—S cluster binding of the purified NEET proteins.
(§2) The Fe—S cluster binding capacity of NEET proteins is known to be coordinated by four amino-acids in a stretch of 16 (three Cysteine and one Histidine). As the lability of the Fe—S cluster of NEET proteins is sensitive to the environment, cluster stability measurements are one of the measures of interactions of NEET proteins with small molecules and compounds. NEET protein/2Fe-2S cluster stability can be assessed by monitoring the decay in absorbance of its characteristic 458-nm peak (characteristic of the oxidized 2Fe-2S cluster) over time. Each NEET protein (mitoNEET, NAF-1 and Miner 2) was tested for its Fe—S binding in the absence or presence of a compound according to the invention (see table 2 below). The rate of cluster release (time in minutes to achieve 50% loss of bound Fe—S cluster) was compared for each NEET protein in the presence of one of the compounds of the invention (in a 1:3 protein:compound molar ratio) relative to each protein alone.
(§3) At pH 6, all the three NEET proteins (mitoNEET, NAF-1 and Miner 2) have a characteristic rate of loss of the bound Fe—S cluster that can be measured by the decrease of absorbance at wavelength 458 nm over time, using a spectrophotometer. Thus, Bis-Tris buffer (100 mM Bis-Tris pH6, 100 mM Nacl) was used at pH 6 to dilute either DMSO (Blank sample: Bis-Tris Buffer pH 6, 6 μM DMSO), DMSO and one of the three NEET proteins (Control sample: Bis-Tris Buffer pH 6, 6 μM DMSO, 2 μM purified NEET protein) or DMSO, one of the three NEET proteins and a compound of the invention (Test sample: Bis-Tris Buffer pH 6, 6 μM DMSO, […], 6 μM compound of the invention).
(§4) A reaction mix containing DMSO diluted in the Bis-Tris Buffer with or without a compound of the invention was prepared. The purified NEET protein was the last component added to the reaction mix which was then aliquoted into 4 replicates in 96 wells plates. The absorbance at wavelength 458 nm was taken at 5 minutes intervals at 37° C. with a spectrofluorimeter. The assay run time for CISD2 gene product (NAF-1) was 500 minutes and 180 minutes for both the CISD 1 gene product (mitoNEET) and the CISD3 gene product (Miner 2).
(§5) In addition to time monitoring, residual bound Fe—S cluster to NEET protein was measured at the final point of the spectrometry assay for each Test sample and compared to the Control sample data (in parenthesis table 2). This residual binding is measured by the differential percentage between the absorbance 458 nm at time zero and the absorbance 458 nm at the end of the experiment (i.e. respectively 500 or 180 minutes as described hereabove), showing the percentage of NEET protein still able to bind a Fe—S cluster.
(§6) Analysis of the absorbance enables the time for which 50% loss of bound Fe—S cluster is reached (i.e. a 50% absorbance decrease at 458 nm) for each Test sample and each Control sample (in parenthesis table 2) to be determined. The data are then compared to determine whether the compound of the invention stabilizes or destabilizes the NEET protein/Fe—S cluster binding.

[3] = molecular target: T2, CISD3 Gene Product (Miner2) (Homo sapiens, UniProt P0C7P0); assay: Stability of Fe—S cluster binding of purified NEET protein Miner2; assay type: biochemical; details: for Time (in minutes) to achieve 50% loss of bound cluster (Absorbance 458 nm), CISD3 Gene Product (Miner2) / Residual cluster bound at end of experiment (Percentage Absorbance 458 nm at time zero), CISD3 Gene Product (DMSO 11%): pH 6, 37° C., 1:3 protein:compound molar ratio; for Time (in minutes) to achieve 50% loss of bound cluster (Absorbance 458 nm), CISD3 Gene Product (Miner2): 6 μM compound, run time 180 minutes, Vehicle Control 60; for Residual cluster bound at end of experiment (Percentage Absorbance 458 nm at time zero), CISD3 Gene Product (DMSO 11%): end of 180 minutes, Vehicle Control 11%
T2 sequence (P0C7P0 15-127): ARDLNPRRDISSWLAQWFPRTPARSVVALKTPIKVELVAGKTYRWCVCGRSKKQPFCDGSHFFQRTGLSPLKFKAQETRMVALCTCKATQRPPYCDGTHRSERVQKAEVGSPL
Description: as §1, §2, §3, §4, §5, §6

[4] = molecular target: T3, CISD2 Gene Product (NAF-1) (Homo sapiens, UniProt Q8N5K1); assay: Stability of Fe—S cluster binding of purified NEET protein NAF-1; assay type: biochemical; details: for Time (in minutes) to achieve 50% loss of bound cluster (Absorbance 458 nm), CISD2 Gene Product (NAF-1) / Residual cluster bound at end of experiment (Percentage Absorbance 458 nm at time zero), CISD2 Gene Product (NAF-1): pH 6, 37° C., 1:3 protein:compound molar ratio; for Time (in minutes) to achieve 50% loss of bound cluster (Absorbance 458 nm), CISD2 Gene Product (NAF-1): 6 μM compound, run time 500 minutes, Vehicle Control 310; for Residual cluster bound at end of experiment (Percentage Absorbance 458 nm at time zero), CISD2 Gene Product (NAF-1): end of 500 minutes, Vehicle Control 3%
T3 sequence (Q8N5K1 57-135 limits assumed): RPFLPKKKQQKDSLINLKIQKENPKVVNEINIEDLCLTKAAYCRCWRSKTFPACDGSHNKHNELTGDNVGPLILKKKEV
Description: as §1, §2, §3, §4, §5, §6

[5] = Influenza A virus, H1N1, A549, 48 h
[6] = time to 50% Fe—S cluster bound loss changed by more than 25% vs Control sample, at the concentrations tested

| SMILES | IC50 [1, 5] [nM] | EC50 (NFκB) [nM] | Time (in minutes) to achieve 50% loss of bound cluster (Absorbance 458 nm), CISD1 Gene Product (mitoNEET) [2] | Residual cluster bound at end of experiment (Percentage Absorbance 458 nm at time zero), CISD1 Gene Product (mitoNEET) [2] [%] | stabiliser or destabiliser of Fe—S cluster binding, CISD1 Gene Product (mitoNEET) [2, 6] | Time (in minutes) to achieve 50% loss of bound cluster (Absorbance 458 nm), CISD3 Gene Product (Miner2) [3] | Residual cluster bound at end of experiment (Percentage Absorbance 458 nm at time zero), CISD3 Gene Product (DMSO 11%) [3] [%] | stabiliser or destabiliser of Fe—S cluster binding, CISD3 Gene Product (Miner2) [3, 6] | Time (in minutes) to achieve 50% loss of bound cluster (Absorbance 458 nm), CISD2 Gene Product (NAF-1) [4] [min] | Residual cluster bound at end of experiment (Percentage Absorbance 458 nm at time zero), CISD2 Gene Product (NAF-1) [4] [%] | IC50 [1] [nM] | stabiliser or destabiliser of Fe—S cluster binding, CISD2 Gene Product (NAF-1) [4, 6] |
| --- | --- | --- | --- | --- | --- | --- | --- | --- | --- | --- | --- | --- |
| COc1ccc(C(=O)Nc2sc3c(c2C(=O)O)CCC(C(C)(C)C)C3)cc1 (stereo not shown) [#1] | 54.8 | 160 | – | – | – | – | – | – | – | – | – | – |
| CC(C)(C)C1CCc2c(sc(NC(=O)c3ccc(Cl)cc3)c2C(=O)O)C1 (stereo not shown) [#10] | 26 | 300 | during 180 minutes | 62 | stabilisers | during 180 minutes | 56 | Stabilisers | 290 | 42 | – | – |
| CC(C)(C)C1CCc2c(sc(NC(=O)c3ccccc3F)c2C(=O)O)C1 (stereo not shown) [#69] | – | 320 | – | – | – | – | – | – | – | – | 120 | – |
| O=C(Nc1sc2c(c1C(=O)O)CCC(c1ccccc1)C2)c1ccccc1 (stereo not shown) [#46] | – | – | 80 min | 18 | – | 60 min | 13 | – | 90 | 14 | 150 | destabilisers |

Source: US11603368B2, “Fused thiophene derivatives and their uses” (ENYO PHARMA, priority 2018, dated 2023)
